The values below come from US10093563B2, “Method for making chelating base product used in water-based systems” (Earth Science Laboratories, priority 2015, dated 2018).

The subject of this assay is Cotton plants (Gossypium hirsutum L.). Kind of assay: foliar zinc micronutrient delivery to cotton plants. The format is in vivo. To be noted: for Carotenoids / Chlorophylls / Electron Transport Rate / Membrane Leakage: cotton leaf. From the text:
An illustrative example of micronutrient delivery is the delivery of zinc (Zn) complexed to the chelant detailed herein to growing plants via foliar application. In this example, the experiment design was a Randomized Complete Design of 4 treatments of 10 replications for each of five parameters: (1) total chlorophyll by measuring fluorescence, (2) total carotenoids by measuring absorbance following organic solvent extraction, (3) electron transport rate by measuring light absorption and fluorometry, (4) membrane leakage by measuring change in electrolyte concentrations, and (5) leaf tissue concentrations of zinc by digesting samples in nitric acid followed by atomic absorption spectrophotometry. Leaf samples were collected at weekly intervals after squaring. Cotton plants (Gossypium hirsutum L.) were grown in a climate controlled chamber on a 14/10 hour, 30/20° C. diurnal cycle, respectively. Individual plants were grown in 48, 3 liter pots containing nutrient deficient potting soil. Plants received identical treatment for nutrition and growth management until squaring. At squaring, the first round of measurements were made and treatments sprayed via a CO2 backpack sprayer with plants arranged in rows. Sprays were allowed to dry before returning to the climate controlled chamber to minimize cross contamination of treatments due to foliar contact. Plants were then grown for an additional two to three weeks with nutrients being supplied via zinc-free Hoagland's solution without added Zn for treatments: ESL-Zn (base product fluid solution), Zinc Sulfate, and Low Zinc. The elemental composition of Hoagland's solution is as follows: N 210 mg/L, K 235 mg/L, Ca 200 mg/L, P 31 mg/L, S 64 mg/L, Mg 48 mg/L, B 0.5 mg/L, Fe 1 to 5 mg/L, Mn 0.5 mg/L, Zn 0.05 mg/L, Cu 0.02 mg/L, and Mo 0.01 mg/L. The four treatments and descriptions were (1) “Control” (no foliar spray addition of Zn), (2) “Low Zn” (No foliar spray addition and the Zn concentration of the Hoagland's solution was reduced to 0.025 mg/L, (3) “ZnSO4” (Foliar spray equivalent of 1% solution [e.g., 8 lbs. of 36% ZnSO4 in 100 gallons H2O] at 15 gallons/acre, and (4) “ESL-Zn” (Foliar spray equivalent of 1% solution [e.g., 8 lbs. of 36% ZnSO4 in 100 gallons H2O] at 15 gallons/acre).

Setting [1] is: week 1 (at squaring, measured before foliar spray).
[2] abbreviates: week 2, foliar spray equivalent of 1% solution at 15 gallons/acre.
[3] abbreviates: week 3, foliar spray equivalent of 1% solution at 15 gallons/acre.

Structures are written as SMILES.

Consider `O=S(=O)([O-])[O-].[Zn+2]` [ZnSO4, Zinc Sulfate], for which, under setting [1], the Carotenoids is on record as 1.713 μg carotenoids/mg dry weight, the Chlorophylls was 11.88 μg pigments/mg dry weight, the “Electron Transport Rate” value worked out at 71 μmol electrons m^−2 s^− and the “Membrane Leakage” value turned out to be 34.68%. Also, the “Zn (leaf tissue concentration)” value under setting [1] is 27.46 ppm or mg/L. For the same compound, under setting [2], the Carotenoids was 2.322 μg carotenoids/mg dry weight, the Chlorophylls was found to be 12.67 μg pigments/mg dry weight, the “Electron Transport Rate” value is 70 μmol electrons m^−2 s^− and the “Membrane Leakage” value was 28.12%. The “Zn (leaf tissue concentration)” value under setting [2] is listed as 61.29 ppm or mg/L. Under setting [3], the Carotenoids is recorded as 1.559 μg carotenoids/mg dry weight, the Chlorophylls worked out at 10.72 μg pigments/mg dry weight, the “Electron Transport Rate” value was 68 μmol electrons m^−2 s^− and the “Membrane Leakage” value came out at 27.06%. The “Zn (leaf tissue concentration)” value under setting [3] is reported as 27.52 ppm or mg/L.
